pIC50: −log10 of the molar value. Active and inactive are the calls of the source. The calls are words filed in the database; no cut-off is given here.
Molecular target: T1, CREB-binding protein (Homo sapiens, UniProt Q92793)
Experiment: Inhibition of biotinylated-H4KAc4 binding to human His6-tagged CBP (R1081 to G1197 residues) expressed in Escherichia coli BL21(DE3) after 2.5 hrs by luminescence-based AlphaScreen assay
Details: not given

Row | SMILES | pIC50
1 | COc1ccc2c(c1)c(C(=O)Nc1cc(C(=O)O)cc(-c3cnn(C)c3)c1F)cn2C(C)=O | 7.43
2 | CC(=O)n1cc(C(=O)Nc2cc(COC3CCCCO3)cc(C(=O)O)c2)c2ccccc21 (stereo not drawn) | 6.00

Test system: LNCaP C4-2B
Experiment: Anticlonogenic activity against human C4-2B cells after 14 days by crystal violet staining based assay
Type: functional, cell-based
Details: not given

Row | SMILES | Activity
3 | COc1ccc2c(c1)c(C(=O)Nc1cc(C(=O)O)cc(-c3cnn(C)c3)c1F)cn2C(C)=O | inactive

Molecular target: T1, CREB-binding protein
Experiment: Binding affinity to human His6-tagged CBP (R1081 to G1197 residues) expressed in Escherichia coli BL21(DE3) assessed as change in melting temperature at 200 uM after 30 mins by SYPRO orange dye based fluorescence assay
Details: not given

Row | SMILES | ΔTm [°C]
4 | COc1ccc2c(c1)c(C(=O)Nc1cc(C(=O)O)cc(-c3cnn(C)c3)c1F)cn2C(C)=O | 8.7

Molecular target: T2, Histone acetyltransferase KAT2B (Homo sapiens, UniProt Q92831)
Experiment: Binding affinity to human His6-tagged PCAF (G715 to D831 residues) expressed in Escherichia coli BL21(DE3) assessed as change in melting temperature at 200 uM after 30 mins by SYPRO orange dye based fluorescence assay
Details: not given

Row | SMILES | ΔTm [°C]
5 | COc1ccc2c(c1)c(C(=O)Nc1cc(C(=O)O)cc(-c3cnn(C)c3)c1F)cn2C(C)=O | -0.3

Molecular target: T3, Histone acetyltransferase p300 (Homo sapiens, UniProt Q09472)
T3 sequence (Q09472 whole entry, the tested form may be a part): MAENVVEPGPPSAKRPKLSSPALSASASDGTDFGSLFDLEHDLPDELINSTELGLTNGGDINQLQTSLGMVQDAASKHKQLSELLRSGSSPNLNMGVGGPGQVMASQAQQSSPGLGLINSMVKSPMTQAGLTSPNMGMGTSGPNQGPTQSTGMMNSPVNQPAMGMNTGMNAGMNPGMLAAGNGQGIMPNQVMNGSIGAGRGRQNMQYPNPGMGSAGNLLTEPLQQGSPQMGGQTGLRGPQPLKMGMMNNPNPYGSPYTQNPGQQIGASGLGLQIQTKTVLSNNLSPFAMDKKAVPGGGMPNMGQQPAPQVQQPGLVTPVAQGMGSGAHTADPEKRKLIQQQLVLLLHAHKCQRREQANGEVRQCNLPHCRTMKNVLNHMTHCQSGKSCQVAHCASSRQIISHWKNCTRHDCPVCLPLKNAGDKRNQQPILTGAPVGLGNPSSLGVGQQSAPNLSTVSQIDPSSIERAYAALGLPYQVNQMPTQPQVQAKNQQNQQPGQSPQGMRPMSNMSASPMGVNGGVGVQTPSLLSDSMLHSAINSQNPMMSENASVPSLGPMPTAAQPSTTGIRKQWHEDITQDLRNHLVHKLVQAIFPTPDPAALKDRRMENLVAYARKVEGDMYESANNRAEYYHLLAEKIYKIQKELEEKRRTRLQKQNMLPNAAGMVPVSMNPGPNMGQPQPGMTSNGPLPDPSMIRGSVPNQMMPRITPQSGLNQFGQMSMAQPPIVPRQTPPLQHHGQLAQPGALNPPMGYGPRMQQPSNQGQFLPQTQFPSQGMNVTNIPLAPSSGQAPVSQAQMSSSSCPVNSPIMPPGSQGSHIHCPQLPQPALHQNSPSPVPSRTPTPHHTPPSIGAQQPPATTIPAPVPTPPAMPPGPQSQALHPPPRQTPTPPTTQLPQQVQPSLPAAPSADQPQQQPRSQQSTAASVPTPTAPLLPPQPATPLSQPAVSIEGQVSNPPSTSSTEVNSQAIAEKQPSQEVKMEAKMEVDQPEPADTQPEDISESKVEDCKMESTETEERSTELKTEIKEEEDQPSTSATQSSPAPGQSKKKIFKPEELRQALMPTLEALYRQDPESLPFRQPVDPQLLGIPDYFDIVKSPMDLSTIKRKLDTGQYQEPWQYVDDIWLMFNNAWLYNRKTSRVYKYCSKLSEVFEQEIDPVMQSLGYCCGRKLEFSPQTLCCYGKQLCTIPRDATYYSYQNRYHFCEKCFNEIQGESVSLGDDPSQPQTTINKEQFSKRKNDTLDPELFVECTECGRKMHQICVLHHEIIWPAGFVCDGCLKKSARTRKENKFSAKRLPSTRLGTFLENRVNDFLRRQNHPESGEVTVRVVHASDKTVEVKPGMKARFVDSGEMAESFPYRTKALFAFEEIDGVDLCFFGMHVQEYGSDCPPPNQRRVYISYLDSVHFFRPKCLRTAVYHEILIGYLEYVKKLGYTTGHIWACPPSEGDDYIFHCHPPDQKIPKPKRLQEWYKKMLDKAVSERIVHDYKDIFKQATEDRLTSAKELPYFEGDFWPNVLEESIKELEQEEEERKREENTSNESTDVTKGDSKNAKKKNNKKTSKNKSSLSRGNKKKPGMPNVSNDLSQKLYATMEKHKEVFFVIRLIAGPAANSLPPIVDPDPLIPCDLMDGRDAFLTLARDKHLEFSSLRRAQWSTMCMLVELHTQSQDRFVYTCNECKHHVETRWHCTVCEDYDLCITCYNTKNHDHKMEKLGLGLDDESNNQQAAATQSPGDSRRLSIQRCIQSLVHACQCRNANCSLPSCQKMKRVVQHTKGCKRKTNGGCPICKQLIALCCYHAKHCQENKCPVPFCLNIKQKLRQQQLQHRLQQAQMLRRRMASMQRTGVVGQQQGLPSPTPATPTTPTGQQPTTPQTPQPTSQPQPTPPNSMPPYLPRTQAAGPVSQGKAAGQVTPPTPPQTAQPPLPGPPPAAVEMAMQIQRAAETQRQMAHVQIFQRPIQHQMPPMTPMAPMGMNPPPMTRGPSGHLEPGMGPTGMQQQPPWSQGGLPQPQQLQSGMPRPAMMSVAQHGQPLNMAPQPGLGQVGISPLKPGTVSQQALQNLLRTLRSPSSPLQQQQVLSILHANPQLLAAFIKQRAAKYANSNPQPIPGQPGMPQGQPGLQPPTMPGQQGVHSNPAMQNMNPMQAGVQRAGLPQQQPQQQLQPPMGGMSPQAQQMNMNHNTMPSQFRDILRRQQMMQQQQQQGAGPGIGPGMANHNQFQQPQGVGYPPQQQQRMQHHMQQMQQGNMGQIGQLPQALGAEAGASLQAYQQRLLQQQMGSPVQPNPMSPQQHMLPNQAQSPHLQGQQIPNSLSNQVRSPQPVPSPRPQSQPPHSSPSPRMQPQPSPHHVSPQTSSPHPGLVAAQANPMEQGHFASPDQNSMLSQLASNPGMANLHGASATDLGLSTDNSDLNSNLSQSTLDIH
Experiment: Binding affinity to human His6-tagged EP300 (A1040 to G1161 residues) expressed in Escherichia coli BL21(DE3) assessed as change in melting temperature at 200 uM after 30 mins by SYPRO orange dye based fluorescence assay
Details: not given

Row | SMILES | ΔTm [°C]
6 | COc1ccc2c(c1)c(C(=O)Nc1cc(C(=O)O)cc(-c3cnn(C)c3)c1F)cn2C(C)=O | 7.2

Molecular target: T3, Histone acetyltransferase p300
Experiment: Inhibition of biotinylated-H4KAc4 binding to human His6-tagged EP300 (A1040 to G1161 residues) expressed in Escherichia coli BL21(DE3) after 2.5 hrs by luminescence-based AlphaScreen assay
Details: not given

Row | SMILES | pIC50
7 | COc1ccc2c(c1)c(C(=O)Nc1cc(C(=O)O)cc(-c3cnn(C)c3)c1F)cn2C(C)=O | 7.31
8 | CC(=O)n1cc(C(=O)Nc2cc(COC3CCCCO3)cc(C(=O)O)c2)c2ccccc21 (stereo not drawn) | 5.60

Molecular target: T4, Transcription initiation factor TFIID subunit 1 (Homo sapiens, UniProt P21675)
T4 sequence (P21675 whole entry, the tested form may be a part): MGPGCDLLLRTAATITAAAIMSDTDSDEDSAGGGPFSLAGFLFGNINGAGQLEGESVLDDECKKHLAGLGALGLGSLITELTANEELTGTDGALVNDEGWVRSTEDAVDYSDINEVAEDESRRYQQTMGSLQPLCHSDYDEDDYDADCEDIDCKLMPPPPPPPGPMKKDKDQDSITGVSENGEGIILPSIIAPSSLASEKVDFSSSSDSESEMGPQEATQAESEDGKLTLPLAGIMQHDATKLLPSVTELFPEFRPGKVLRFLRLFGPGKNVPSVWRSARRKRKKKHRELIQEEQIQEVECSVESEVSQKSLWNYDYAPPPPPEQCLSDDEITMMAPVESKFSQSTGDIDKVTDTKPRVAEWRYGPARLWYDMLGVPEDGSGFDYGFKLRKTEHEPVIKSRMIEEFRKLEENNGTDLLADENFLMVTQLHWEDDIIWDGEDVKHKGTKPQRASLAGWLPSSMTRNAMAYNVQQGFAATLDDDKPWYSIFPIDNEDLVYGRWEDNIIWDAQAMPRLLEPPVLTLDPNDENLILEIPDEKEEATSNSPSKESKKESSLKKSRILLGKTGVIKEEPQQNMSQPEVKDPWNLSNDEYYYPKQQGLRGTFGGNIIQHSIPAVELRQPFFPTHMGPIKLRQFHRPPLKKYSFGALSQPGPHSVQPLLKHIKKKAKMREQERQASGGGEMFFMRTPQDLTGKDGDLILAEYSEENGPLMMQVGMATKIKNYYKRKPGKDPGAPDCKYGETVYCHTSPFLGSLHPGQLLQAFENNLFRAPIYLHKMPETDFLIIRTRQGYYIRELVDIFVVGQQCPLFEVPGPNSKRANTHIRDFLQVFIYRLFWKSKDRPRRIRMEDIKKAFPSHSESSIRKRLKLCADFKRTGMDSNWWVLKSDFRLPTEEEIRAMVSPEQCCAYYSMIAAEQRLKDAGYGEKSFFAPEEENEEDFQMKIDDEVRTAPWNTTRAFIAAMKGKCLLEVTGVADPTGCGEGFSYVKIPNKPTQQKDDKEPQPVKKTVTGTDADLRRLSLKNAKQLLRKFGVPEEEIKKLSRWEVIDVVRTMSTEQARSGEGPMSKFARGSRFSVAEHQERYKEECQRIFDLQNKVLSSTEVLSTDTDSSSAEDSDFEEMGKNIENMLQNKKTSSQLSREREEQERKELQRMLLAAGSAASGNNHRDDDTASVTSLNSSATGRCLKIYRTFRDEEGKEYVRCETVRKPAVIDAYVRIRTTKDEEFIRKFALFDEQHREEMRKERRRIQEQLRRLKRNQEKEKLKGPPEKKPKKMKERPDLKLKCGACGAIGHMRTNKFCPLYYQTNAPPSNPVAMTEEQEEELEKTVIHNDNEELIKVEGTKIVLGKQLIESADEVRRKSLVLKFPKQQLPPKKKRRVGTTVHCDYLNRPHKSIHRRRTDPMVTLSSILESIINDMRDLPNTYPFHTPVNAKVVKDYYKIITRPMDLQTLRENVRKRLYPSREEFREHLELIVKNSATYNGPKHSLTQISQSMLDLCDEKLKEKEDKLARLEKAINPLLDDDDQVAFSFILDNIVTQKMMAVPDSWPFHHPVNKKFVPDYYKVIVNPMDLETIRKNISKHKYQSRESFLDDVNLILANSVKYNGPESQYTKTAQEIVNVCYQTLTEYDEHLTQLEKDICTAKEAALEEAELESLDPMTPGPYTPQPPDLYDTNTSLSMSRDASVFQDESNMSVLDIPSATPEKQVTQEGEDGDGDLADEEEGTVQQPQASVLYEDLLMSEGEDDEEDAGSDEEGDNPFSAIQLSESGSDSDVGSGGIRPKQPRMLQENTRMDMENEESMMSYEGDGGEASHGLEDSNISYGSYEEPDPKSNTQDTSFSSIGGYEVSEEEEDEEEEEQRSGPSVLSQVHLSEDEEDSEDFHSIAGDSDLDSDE
Experiment: Binding affinity to human His6-tagged TAF-1 (R1377 to D1503 residues) expressed in Escherichia coli BL21(DE3) assessed as change in melting temperature at 200 uM after 30 mins by SYPRO orange dye based fluorescence assay
Details: not given

Row | SMILES | ΔTm [°C]
9 | COc1ccc2c(c1)c(C(=O)Nc1cc(C(=O)O)cc(-c3cnn(C)c3)c1F)cn2C(C)=O | 0.6

Molecular target: Transcription intermediary factor 1-alpha (Homo sapiens) (UniProt O15164)
Experiment: Binding affinity to human His6-tagged TIF-1 (G896 to E1014 residues) expressed in Escherichia coli BL21(DE3) assessed as change in melting temperature at 200 uM after 30 mins by SYPRO orange dye based fluorescence assay
Details: not given

Row | SMILES | ΔTm [°C]
10 | COc1ccc2c(c1)c(C(=O)Nc1cc(C(=O)O)cc(-c3cnn(C)c3)c1F)cn2C(C)=O | 0

Test system: CWR22R
Details: not given

Row | SMILES | IC50
11 | COc1ccc2c(c1)c(C(=O)Nc1cc(C(=O)O)cc(-c3cnn(C)c3)c1F)cn2C(C)=O | Not Active

Molecular target: T5, Bromodomain-containing protein 9 (Homo sapiens, UniProt Q9H8M2)
T5 sequence (Q9H8M2 whole entry): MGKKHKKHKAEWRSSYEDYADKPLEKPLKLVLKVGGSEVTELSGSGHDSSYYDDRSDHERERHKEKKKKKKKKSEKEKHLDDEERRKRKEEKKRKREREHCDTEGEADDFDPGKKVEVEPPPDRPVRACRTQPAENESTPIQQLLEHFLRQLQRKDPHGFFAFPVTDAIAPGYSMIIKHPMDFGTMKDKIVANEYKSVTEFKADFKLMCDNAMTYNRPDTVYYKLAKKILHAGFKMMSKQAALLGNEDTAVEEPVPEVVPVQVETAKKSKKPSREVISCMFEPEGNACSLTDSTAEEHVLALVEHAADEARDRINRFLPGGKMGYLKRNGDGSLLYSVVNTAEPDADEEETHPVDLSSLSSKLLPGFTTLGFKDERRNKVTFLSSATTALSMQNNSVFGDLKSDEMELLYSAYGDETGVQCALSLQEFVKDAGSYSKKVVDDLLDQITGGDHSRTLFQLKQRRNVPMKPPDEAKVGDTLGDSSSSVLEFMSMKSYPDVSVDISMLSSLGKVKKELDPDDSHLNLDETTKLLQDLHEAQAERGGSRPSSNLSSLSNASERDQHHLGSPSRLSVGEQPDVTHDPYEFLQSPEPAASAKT
Experiment: Inhibition of biotinylated-H4KAc4 binding to human His6-tagged BRD9 (L14 to Q134 residues) expressed in Escherichia coli BL21(DE3) after 2.5 hrs by luminescence-based AlphaScreen assay
Details: not given

Row | SMILES | pIC50
12 | COc1ccc2c(c1)c(C(=O)Nc1cc(C(=O)O)cc(-c3cnn(C)c3)c1F)cn2C(C)=O | < 4.70
13 | CC(=O)n1cc(C(=O)Nc2cc(COC3CCCCO3)cc(C(=O)O)c2)c2ccccc21 (stereo not drawn) | < 4.70

Molecular target: T6, Bromodomain adjacent to zinc finger domain protein 2B (Homo sapiens, UniProt Q9UIF8)
Experiment: Binding affinity to human His6-tagged BAZ2B (S1858 to S1972 residues) expressed in Escherichia coli BL21(DE3) assessed as change in melting temperature at 200 uM after 30 mins by SYPRO orange dye based fluorescence assay
Details: not given

Row | SMILES | ΔTm [°C]
14 | COc1ccc2c(c1)c(C(=O)Nc1cc(C(=O)O)cc(-c3cnn(C)c3)c1F)cn2C(C)=O | 0.3

Molecular target: T7, Bromodomain-containing protein 4 (Homo sapiens, UniProt O60885)
Experiment: Inhibition of biotinylated-H4KAc4 binding to human His6-tagged BRD4 bromodomain-1 (N44 to E168 residues) expressed in Escherichia coli BL21(DE3) after 2.5 hrs by luminescence-based AlphaScreen assay
Details: not given

Row | SMILES | pIC50
15 | COc1ccc2c(c1)c(C(=O)Nc1cc(C(=O)O)cc(-c3cnn(C)c3)c1F)cn2C(C)=O | < 4.70
16 | CC(=O)n1cc(C(=O)Nc2cc(COC3CCCCO3)cc(C(=O)O)c2)c2ccccc21 (stereo not drawn) | < 4.70

Molecular target: T2, Histone acetyltransferase KAT2B
Experiment: Inhibition of biotinylated-H4KAc4 binding to human His6-tagged PCAF (G715 to D831 residues) expressed in Escherichia coli BL21(DE3) after 2.5 hrs by luminescence-based AlphaScreen assay
Details: not given
Target sequence in this assay (Q92831 whole entry, the tested form may be a part): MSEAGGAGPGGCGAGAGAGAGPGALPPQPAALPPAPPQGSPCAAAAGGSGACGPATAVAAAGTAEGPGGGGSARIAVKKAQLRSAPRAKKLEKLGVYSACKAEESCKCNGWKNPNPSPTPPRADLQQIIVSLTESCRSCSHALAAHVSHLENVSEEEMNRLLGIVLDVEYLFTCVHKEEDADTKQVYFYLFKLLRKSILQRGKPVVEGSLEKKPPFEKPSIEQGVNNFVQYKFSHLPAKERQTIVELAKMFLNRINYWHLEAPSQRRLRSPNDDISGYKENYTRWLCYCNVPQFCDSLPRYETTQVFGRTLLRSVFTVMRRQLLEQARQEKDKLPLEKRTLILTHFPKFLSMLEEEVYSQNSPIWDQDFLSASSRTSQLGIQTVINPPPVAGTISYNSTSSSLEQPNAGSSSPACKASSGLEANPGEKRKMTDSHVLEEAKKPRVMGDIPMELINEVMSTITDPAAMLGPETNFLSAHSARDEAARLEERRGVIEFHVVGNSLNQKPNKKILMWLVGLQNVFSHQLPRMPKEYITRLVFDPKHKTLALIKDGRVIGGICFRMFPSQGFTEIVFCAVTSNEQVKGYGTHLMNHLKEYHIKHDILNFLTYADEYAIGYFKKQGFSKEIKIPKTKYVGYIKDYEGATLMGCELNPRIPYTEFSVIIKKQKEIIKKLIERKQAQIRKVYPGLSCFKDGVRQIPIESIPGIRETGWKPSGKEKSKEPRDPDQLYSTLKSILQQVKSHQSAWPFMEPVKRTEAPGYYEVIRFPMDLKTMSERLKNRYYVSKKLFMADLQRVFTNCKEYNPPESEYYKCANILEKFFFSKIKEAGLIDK

Row | SMILES | pIC50
17 | COc1ccc2c(c1)c(C(=O)Nc1cc(C(=O)O)cc(-c3cnn(C)c3)c1F)cn2C(C)=O | < 4.70
18 | CC(=O)n1cc(C(=O)Nc2cc(COC3CCCCO3)cc(C(=O)O)c2)c2ccccc21 (stereo not drawn) | < 4.70

Molecular target: Bromodomain-containing protein 9 (Homo sapiens) (UniProt Q9H8M2)
Experiment: Binding affinity to human His6-tagged BRD9 (L14 to Q134 residues) expressed in Escherichia coli BL21(DE3) assessed as change in melting temperature at 200 uM after 30 mins by SYPRO orange dye based fluorescence assay
Details: not given

Row | SMILES | ΔTm [°C]
19 | COc1ccc2c(c1)c(C(=O)Nc1cc(C(=O)O)cc(-c3cnn(C)c3)c1F)cn2C(C)=O | 0.9

Molecular target: T7, Bromodomain-containing protein 4
Experiment: Binding affinity to human His6-tagged BRD4 bromodomain-1 (N44 to E168 residues) expressed in Escherichia coli BL21(DE3) assessed as change in melting temperature at 200 uM after 30 mins by SYPRO orange dye based fluorescence assay
Details: not given

Row | SMILES | ΔTm [°C]
20 | COc1ccc2c(c1)c(C(=O)Nc1cc(C(=O)O)cc(-c3cnn(C)c3)c1F)cn2C(C)=O | 1.2

Molecular target: T4, Transcription initiation factor TFIID subunit 1
Experiment: Inhibition of biotinylated-H4KAc4 binding to human His6-tagged TAF-1 (R1377 to D1503 residues) expressed in Escherichia coli BL21(DE3) after 2.5 hrs by luminescence-based AlphaScreen assay
Details: not given

Row | SMILES | pIC50
21 | COc1ccc2c(c1)c(C(=O)Nc1cc(C(=O)O)cc(-c3cnn(C)c3)c1F)cn2C(C)=O | < 4.70
22 | CC(=O)n1cc(C(=O)Nc2cc(COC3CCCCO3)cc(C(=O)O)c2)c2ccccc21 (stereo not drawn) | < 4.70

Test system: LNCaP
Experiment: Antiproliferative activity against human LNCAP cells after 72 hrs by Cell-Titer Glo assay
Type: functional, cell-based
Details: lncap

Row | SMILES | IC50
23 | COc1ccc2c(c1)c(C(=O)Nc1cc(C(=O)O)cc(-c3cnn(C)c3)c1F)cn2C(C)=O | Not Active

Test system: CWR22R
Experiment: Anticlonogenic activity against human 22Rv1 cells after 14 days by crystal violet staining based assay
Type: functional, cell-based
Details: not given

Row | SMILES | Activity
24 | COc1ccc2c(c1)c(C(=O)Nc1cc(C(=O)O)cc(-c3cnn(C)c3)c1F)cn2C(C)=O | inactive

Molecular target: T8, Transcription intermediary factor 1-alpha (Homo sapiens, UniProt O15164)
T8 sequence (O15164 whole entry): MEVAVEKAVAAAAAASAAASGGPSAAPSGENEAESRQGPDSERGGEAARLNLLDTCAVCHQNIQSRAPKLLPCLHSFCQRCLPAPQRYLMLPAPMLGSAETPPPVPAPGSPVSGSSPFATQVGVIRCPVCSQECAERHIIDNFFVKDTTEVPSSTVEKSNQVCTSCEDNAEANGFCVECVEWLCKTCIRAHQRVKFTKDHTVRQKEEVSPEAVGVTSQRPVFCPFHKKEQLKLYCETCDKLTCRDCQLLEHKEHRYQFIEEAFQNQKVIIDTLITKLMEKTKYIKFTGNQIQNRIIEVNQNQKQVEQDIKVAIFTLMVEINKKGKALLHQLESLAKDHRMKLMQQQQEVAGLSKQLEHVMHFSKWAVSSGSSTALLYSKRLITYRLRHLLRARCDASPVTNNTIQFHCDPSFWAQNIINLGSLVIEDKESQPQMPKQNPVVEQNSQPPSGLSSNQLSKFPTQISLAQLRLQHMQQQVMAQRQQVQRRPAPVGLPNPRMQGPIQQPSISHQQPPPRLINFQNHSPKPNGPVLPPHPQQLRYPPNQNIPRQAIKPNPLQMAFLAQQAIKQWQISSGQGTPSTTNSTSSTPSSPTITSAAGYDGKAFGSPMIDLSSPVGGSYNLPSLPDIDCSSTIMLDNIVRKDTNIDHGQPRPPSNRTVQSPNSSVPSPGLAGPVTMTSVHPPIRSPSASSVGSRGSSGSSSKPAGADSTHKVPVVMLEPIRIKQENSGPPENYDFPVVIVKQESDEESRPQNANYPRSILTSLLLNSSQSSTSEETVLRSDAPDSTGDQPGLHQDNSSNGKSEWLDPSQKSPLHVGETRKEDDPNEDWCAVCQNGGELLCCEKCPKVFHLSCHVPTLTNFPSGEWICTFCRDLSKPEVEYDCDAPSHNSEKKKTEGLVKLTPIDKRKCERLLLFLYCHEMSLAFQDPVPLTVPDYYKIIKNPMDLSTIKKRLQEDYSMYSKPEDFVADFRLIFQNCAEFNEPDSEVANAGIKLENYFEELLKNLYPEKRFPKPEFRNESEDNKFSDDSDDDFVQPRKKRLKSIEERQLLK
Experiment: Inhibition of biotinylated-H4KAc4 binding to human His6-tagged TIF-1 (G896 to E1014 residues) expressed in Escherichia coli BL21(DE3) after 2.5 hrs by luminescence-based AlphaScreen assay
Details: not given

Row | SMILES | pIC50
25 | COc1ccc2c(c1)c(C(=O)Nc1cc(C(=O)O)cc(-c3cnn(C)c3)c1F)cn2C(C)=O | < 4.70
26 | CC(=O)n1cc(C(=O)Nc2cc(COC3CCCCO3)cc(C(=O)O)c2)c2ccccc21 (stereo not drawn) | < 4.70

Molecular target: T6, Bromodomain adjacent to zinc finger domain protein 2B
Experiment: Inhibition of biotinylated-H4KAc4 binding to human His6-tagged BAZ2B (S1858 to S1972 residues) expressed in Escherichia coli BL21(DE3) after 2.5 hrs by luminescence-based AlphaScreen assay
Details: not given

Row | SMILES | pIC50
27 | COc1ccc2c(c1)c(C(=O)Nc1cc(C(=O)O)cc(-c3cnn(C)c3)c1F)cn2C(C)=O | < 4.70
28 | CC(=O)n1cc(C(=O)Nc2cc(COC3CCCCO3)cc(C(=O)O)c2)c2ccccc21 (stereo not drawn) | < 4.70

Source: ChEMBL document CHEMBL4145544, “Discovery and optimization of 1-(1H-indol-1-yl)ethanone derivatives as CBP/EP300 bromodomain inhibitors for the treatment of castration-resistant prostate cancer” (Eur J Med Chem, 2018)
